Data: patent US9469650B2, “Melampomagnolide B derivatives” (BOARD OF TRUSTEES OF THE UNIVERSITY OF ARKANSAS, priority 2013, dated 2016)

Experiments:
MOLT-4 = experiment: panel of 60 human tumor cell lines, growth inhibition (Leukemia); conditions: Homo sapiens
SR = experiment: as above; conditions: Homo sapiens
SF-268 = experiment: panel of 60 human tumor cell lines, growth inhibition (CNS Cancer); conditions: Homo sapiens
SNB-19 = experiment: as above; conditions: Homo sapiens
SNB-75 = experiment: as above; conditions: Homo sapiens
HCC-2998 = experiment: panel of 60 human tumor cell lines, growth inhibition (Colon Cancer); conditions: Homo sapiens
HCT-116 = experiment: as above; conditions: Homo sapiens; for GI50: HCT-116, HCT-116
SW-620 = experiment: as above; conditions: Homo sapiens; for GI50: SW-620, SW-620
786-0 = experiment: panel of 60 human tumor cell lines, growth inhibition (Renal Cancer); conditions: Homo sapiens
A498 = experiment: as above; conditions: Homo sapiens
CAKI-1 = experiment: as above; conditions: Homo sapiens
TK-10 = experiment: as above; conditions: Homo sapiens; for GI50: TK-10, TK-10
UO-31 = experiment: as above; conditions: Homo sapiens
MCF7 = experiment: panel of 60 human tumor cell lines, growth inhibition (Breast Cancer); conditions: Homo sapiens; for GI50: MCF7, MCF7
HS 578T = experiment: as above; conditions: Homo sapiens, Hs-578T
T-47D = experiment: as above; conditions: Homo sapiens, T47D
MDA-MB-468 = experiment: as above; conditions: Homo sapiens
IGROV1 = experiment: panel of 60 human tumor cell lines, growth inhibition (Ovarian Cancer); conditions: Homo sapiens
NCI/ADR-RES = experiment: as above; conditions: Homo sapiens

## C=C1C(=O)O[C@H]2[C@H]1CC/C(COC(=O)Nc1n[nH]c(SC)n1)=C\CC[C@@]1(C)O[C@@H]21 [JVM 64, ((1aR,7aS,10aS,10bS,E)-1a-methyl-8-methylene-9-oxo-1a,2,3,6,7,7a,8,9,10a,10b-decahydrooxireno[2′,3′:9,10]cyclodeca[1,2-b]furan-5-yl)methyl-(5-(methylthio)-1H-1,2,4-triazol-3-yl)carbamate]
MOLT-4; MOLT-4
  GI50: 2.32 µM
MOLT-4; MOLT-4, read-out: LC50
  CC50: 88.5 µM
MOLT-4; MOLT-4, read-out: TGI
  IC (TGI): 6.59 µM
SR
  GI50: 2.36 µM
SR; read-out: LC50
  CC50: > 100 µM
SR; read-out: TGI
  IC (TGI): 7.13 µM
SF-268; SF-268
  GI50: 3.73 µM
SF-268; SF-268, read-out: LC50
  CC50: 52.6 µM
SF-268; SF-268, read-out: TGI
  IC (TGI): 14.7 µM
SNB-19; SNB-19
  GI50: 15.9 µM
SNB-19; SNB-19, read-out: LC50
  CC50: > 100 µM
SNB-19; SNB-19, read-out: TGI
  IC (TGI): 40 µM
SNB-75; SNB-75
  GI50: 1.71 µM
SNB-75; SNB-75, read-out: LC50
  CC50: 33.4 µM
SNB-75; SNB-75, read-out: TGI
  IC (TGI): 10.1 µM
HCC-2998; HCC 2998
  GI50: 7.63 µM
HCC-2998; HCC 2998, read-out: LC50
  CC50: 52.7 µM
HCC-2998; HCC 2998, read-out: TGI
  IC (TGI): 21.5 µM
HCT-116; 5-dose assay
  GI50: 1.13 µM
HCT-116; NCI five dose
  GI50: 1.13 µM
HCT-116; HCT-116, read-out: LC50
  CC50: 5.86 µM
HCT-116; HCT-116, read-out: TGI
  IC (TGI): 2.6 µM
SW-620; 5-dose assay
  GI50: 1.12 µM
SW-620; NCI five dose
  GI50: 1.12 µM
SW-620; SW-620, read-out: LC50
  CC50: 8.49 µM
SW-620; SW-620, read-out: TGI
  IC (TGI): 3.09 µM
786-0; 786-0
  GI50: 1.66 µM
786-0; 786-0, read-out: LC50
  CC50: 7.2 µM
786-0; 786-0, read-out: TGI
  IC (TGI): 3.45 µM
A498; A498
  GI50: 2.56 µM
A498; A498, read-out: LC50
  CC50: 27.8 µM
A498; A498, read-out: TGI
  IC (TGI): 7.67 µM
CAKI-1; CAKI-1
  GI50: 1.99 µM
CAKI-1; CAKI-1, read-out: LC50
  CC50: 36.6 µM
CAKI-1; CAKI-1, read-out: TGI
  IC (TGI): 6.93 µM
TK-10; 5-dose assay
  GI50: 2.51 µM
TK-10; NCI five dose
  GI50: 2.51 µM
TK-10; TK-10, read-out: LC50
  CC50: 27.4 µM
TK-10; TK-10, read-out: TGI
  IC (TGI): 7.16 µM
UO-31; UO-31
  GI50: 1.98 µM
UO-31; UO-31, read-out: LC50
  CC50: 34 µM
UO-31; UO-31, read-out: TGI
  IC (TGI): 7.86 µM
MCF7; 5-dose assay
  GI50: 1.33 µM
MCF7; NCI five dose
  GI50: 1.33 µM
MCF7; MCF7, read-out: LC50
  CC50: 70.2 µM
MCF7; MCF7, read-out: TGI
  IC (TGI): 10.5 µM
HS 578T
  GI50: 2.44 µM
HS 578T; read-out: LC50
  CC50: > 100 µM
HS 578T; read-out: TGI
  IC (TGI): 8.75 µM
T-47D
  GI50: 2.23 µM
T-47D; read-out: LC50
  CC50: 70.9 µM
T-47D; read-out: TGI
  IC (TGI): 5.31 µM
MDA-MB-468; MDA-MB-468
  GI50: 1.29 µM
MDA-MB-468; MDA-MB-468, read-out: LC50
  CC50: 21.8 µM
MDA-MB-468; MDA-MB-468, read-out: TGI
  IC (TGI): 4.04 µM
IGROV1; IGROV-1
  GI50: 3.66 µM
IGROV1; IGROV-1, read-out: LC50
  CC50: 57.8 µM
IGROV1; IGROV-1, read-out: TGI
  IC (TGI): 14.2 µM
NCI/ADR-RES
  GI50: 24.7 µM
NCI/ADR-RES; read-out: LC50
  CC50: > 100 µM
NCI/ADR-RES; read-out: TGI
  IC (TGI): > 100 µM
